Results on 28 compounds are retold here after the NIST ThermoML archive (doi:10.1021/je200637v).

Numbers after ± are expanded uncertainties.

This data set is described as follows: activity coefficient (dimensionless); of the first substance listed, at infinite dilution; xn = mol fraction of the nth substance listed. To be noted: Liquid, Chromatography, x1 = 0.

As for `ClC(Cl)(Cl)Cl` [tetrachloromethane] + CCCCCCCCCC[N+](C)(C)C.O=S(=O)([N-]S(=O)(=O)C(F)(F)F)C(F)(F)F, the activity coefficient reads like this: (322.85 K) 1.46 ± 0.06; (332.65 K) 1.5 ± 0.06; (343.15 K) 1.47 ± 0.06.
`CCO` [ethanol] + CCCC[N+](C)(CCCC)CCCC.O=S(=O)([N-]S(=O)(=O)C(F)(F)F)C(F)(F)F: the activity coefficient is, setting by setting: (322.85 K) 1.53 ± 0.06; (332.65 K) 1.4 ± 0.05; (343.15 K) 1.27 ± 0.04.
Turning to `CCC[N+](=O)[O-]` [1-nitropropane] + CCCC[N+](C)(CCCC)CCCC.O=S(=O)([N-]S(=O)(=O)C(F)(F)F)C(F)(F)F, the activity coefficient (322.85 K) came to 0.68 ± 0.03, the activity coefficient (332.65 K) was found to be 0.7 ± 0.03 and the activity coefficient (343.15 K) is 0.68 ± 0.03.
In the case of `C1COCCO1` [1,4-dioxane] + CCCC[N+](C)(CCCC)CCCC.O=S(=O)([N-]S(=O)(=O)C(F)(F)F)C(F)(F)F, the activity coefficient came out at 0.61 ± 0.03 (322.85 K), 0.67 ± 0.03 (332.65 K) and 0.67 ± 0.03 (343.15 K).
Turning to `ClC(Cl)(Cl)Cl` [tetrachloromethane] + CCCC[N+](C)(CCCC)CCCC.O=S(=O)([N-]S(=O)(=O)C(F)(F)F)C(F)(F)F, the activity coefficient is, setting by setting: (322.85 K) 2.11 ± 0.1; (332.65 K) 2.11 ± 0.1; (343.15 K) 2.07 ± 0.09.
Regarding `CCCC=O` [butanal] + CCCCCCCC[N+](CCCCCCCC)(CCCCCCCC)CCCCCCCC.O=S(=O)([N-]S(=O)(=O)C(F)(F)F)C(F)(F)F, the activity coefficient (343.15 K) came to 0.31 ± 0.04.
With `C=CCCCC` [hex-1-ene] + CCCC[N+](C)(CCCC)CCCC.O=S(=O)([N-]S(=O)(=O)C(F)(F)F)C(F)(F)F, the activity coefficient runs as follows: (322.85 K) 4.31 ± 0.2; (332.65 K) 4.4 ± 0.2; (343.15 K) 4.25 ± 0.19.
As for `c1ccsc1` [thiophene] + CCCC[N+](C)(CCCC)CCCC.O=S(=O)([N-]S(=O)(=O)C(F)(F)F)C(F)(F)F, the activity coefficient (322.85 K) is 0.86 ± 0.03, the activity coefficient (332.65 K) was determined as 0.88 ± 0.03 and the activity coefficient (343.15 K) turned out to be 0.87 ± 0.03.
For the compound `CCCCCCCCC` [nonane] + CCCC[N+](C)(CCCC)CCCC.O=S(=O)([N-]S(=O)(=O)C(F)(F)F)C(F)(F)F, the activity coefficient (322.85 K) is 16.5 ± 0.76, the activity coefficient (332.65 K) came out at 16.1 ± 0.74 and the activity coefficient (343.15 K) was 15 ± 0.69.
In the case of `CCC(C)CC` [3-methylpentane] + CCCCCCCC[N+](C)(C)C.O=S(=O)([N-]S(=O)(=O)C(F)(F)F)C(F)(F)F, the activity coefficient runs as follows: (322.85 K) 5.62 ± 0.26; (332.65 K) 5.24 ± 0.24; (343.15 K) 4.87 ± 0.22.
For `CCN(CC)CC` [triethylamine] + CCCCCCCC[N+](CCCCCCCC)(CCCCCCCC)CCCCCCCC.O=S(=O)([N-]S(=O)(=O)C(F)(F)F)C(F)(F)F, the activity coefficient by setting is: (322.85 K) 1.03 ± 0.03; (332.65 K) 1.05 ± 0.03; (343.15 K) 1.02 ± 0.03.
For the compound `CC#N` [acetonitrile] + CCCC[N+](C)(CCCC)CCCC.O=S(=O)([N-]S(=O)(=O)C(F)(F)F)C(F)(F)F, the activity coefficient worked out at 0.49 ± 0.03 (322.85 K), 0.5 ± 0.03 (332.65 K) and 0.48 ± 0.03 (343.15 K).
With `CCCCCCCC` [octane] + CCCCCCCCCC[N+](C)(C)C.O=S(=O)([N-]S(=O)(=O)C(F)(F)F)C(F)(F)F, the activity coefficient reads like this: (322.85 K) 6.53 ± 0.3; (332.65 K) 6.41 ± 0.29; (343.15 K) 6.1 ± 0.28.
Turning to `CCc1ccccc1` [ethylbenzene] + CCCCCCCC[N+](C)(C)C.O=S(=O)([N-]S(=O)(=O)C(F)(F)F)C(F)(F)F, the activity coefficient was found to be 1.39 ± 0.05 (322.85 K), 1.4 ± 0.05 (332.65 K) and 1.38 ± 0.05 (343.15 K).
In the case of `CCCCCCCCCC` [decane] + CCCCCCCC[N+](CCCCCCCC)(CCCCCCCC)CCCCCCCC.O=S(=O)([N-]S(=O)(=O)C(F)(F)F)C(F)(F)F, the activity coefficient by setting is: (322.85 K) 2.3 ± 0.1; (332.65 K) 2.32 ± 0.11; (343.15 K) 2.21 ± 0.1.
Turning to `C1CCCCC1` [cyclohexane] + CCCCCCCC[N+](C)(C)C.O=S(=O)([N-]S(=O)(=O)C(F)(F)F)C(F)(F)F, the activity coefficient stood at 4.08 ± 0.19 (322.85 K), 3.84 ± 0.17 (332.65 K) and 3.57 ± 0.16 (343.15 K).
Take `OCC(F)(F)F` [2,2,2-trifluoroethanol] + CCCCCCCCCC[N+](C)(C)C.O=S(=O)([N-]S(=O)(=O)C(F)(F)F)C(F)(F)F: the activity coefficient stood at 0.46 ± 0.03 (322.85 K), 0.44 ± 0.03 (332.65 K) and 0.41 ± 0.03 (343.15 K).
Take `c1ccsc1` [thiophene] + CCCCCCCC[N+](C)(C)C.O=S(=O)([N-]S(=O)(=O)C(F)(F)F)C(F)(F)F: the activity coefficient runs as follows: (322.85 K) 0.69 ± 0.03; (332.65 K) 0.69 ± 0.03; (343.15 K) 0.69 ± 0.03.
With `CCCCCCCCCCCC` [dodecane] + CCCC[N+](C)(CCCC)CCCC.O=S(=O)([N-]S(=O)(=O)C(F)(F)F)C(F)(F)F, the activity coefficient by setting is: (322.85 K) 32.4 ± 1.5; (332.65 K) 31.3 ± 1.4; (343.15 K) 28.8 ± 1.3.
Regarding `C1CCCCCC1` [cycloheptane] + CCCCCCCC[N+](C)(C)C.O=S(=O)([N-]S(=O)(=O)C(F)(F)F)C(F)(F)F, the activity coefficient amounted to 10.8 ± 0.5 (322.85 K), 14.7 ± 0.68 (332.65 K) and 19.4 ± 0.9 (343.15 K).
In the same order, the values of `CC(C)CO` [2-methyl-1-propanol] + CCCCCCCC[N+](C)(C)C.O=S(=O)([N-]S(=O)(=O)C(F)(F)F)C(F)(F)F are 1.87 ± 0.08, 1.7 ± 0.07 and 1.51 ± 0.06.
Consider `CC(C)OC(C)C` [diisopropyl ether] + CCCCCCCCCC[N+](C)(C)C.O=S(=O)([N-]S(=O)(=O)C(F)(F)F)C(F)(F)F, for which the activity coefficient (322.85 K) was 2.19 ± 0.1, the activity coefficient (332.65 K) is 2.32 ± 0.11 and the activity coefficient (343.15 K) was determined as 2.3 ± 0.1.
With `CCOCC` [diethyl ether] + CCCCCCCC[N+](C)(C)C.O=S(=O)([N-]S(=O)(=O)C(F)(F)F)C(F)(F)F, the activity coefficient (322.85 K) was 1.6 ± 0.06, the activity coefficient (332.65 K) stood at 1.57 ± 0.06 and the activity coefficient (343.15 K) worked out at 1.53 ± 0.06.
`CCc1ccccc1` [ethylbenzene] + CCCC[N+](C)(CCCC)CCCC.O=S(=O)([N-]S(=O)(=O)C(F)(F)F)C(F)(F)F: the activity coefficient amounted to 1.56 ± 0.06 (322.85 K), 1.64 ± 0.07 (332.65 K) and 1.63 ± 0.07 (343.15 K).
As to `CCCCCCC` [heptane] + CCCCCCCC[N+](CCCCCCCC)(CCCCCCCC)CCCCCCCC.O=S(=O)([N-]S(=O)(=O)C(F)(F)F)C(F)(F)F, the activity coefficient by setting is: (322.85 K) 1.5 ± 0.06; (332.65 K) 1.48 ± 0.06; (343.15 K) 1.47 ± 0.06.
As for `CCC=O` [propanal] + CCCCCCCC[N+](CCCCCCCC)(CCCCCCCC)CCCCCCCC.O=S(=O)([N-]S(=O)(=O)C(F)(F)F)C(F)(F)F, the activity coefficient (322.85 K) was 0.25 ± 0.04, the activity coefficient (332.65 K) is 0.35 ± 0.04 and the activity coefficient (343.15 K) was 0.35 ± 0.04.
Consider `CCCCCCCCCCC` [undecane] + CCCC[N+](C)(CCCC)CCCC.O=S(=O)([N-]S(=O)(=O)C(F)(F)F)C(F)(F)F, for which the activity coefficient by setting is: (322.85 K) 25.7 ± 1.2; (332.65 K) 24.8 ± 1.1; (343.15 K) 22.8 ± 1.1.
Regarding `CCCCCCCCC` [nonane] + CCCCCCCC[N+](CCCCCCCC)(CCCCCCCC)CCCCCCCC.O=S(=O)([N-]S(=O)(=O)C(F)(F)F)C(F)(F)F, the activity coefficient runs as follows: (322.85 K) 2.19 ± 0.1; (332.65 K) 2.14 ± 0.1; (343.15 K) 2.09 ± 0.09.
